Assay results from US11447742B2, “Compositions and methods for activation and overexpression of secondary metabolites in microorganisms” (Prospective Research, Inc., priority 2016, dated 2022).
“Also recorded” adds a separate entry of the source.

Experiments:
S. coelicolor [1] = assay: Induction of pigmented antibiotic (actinorhodin) production in S. coelicolor plate cultures spotted with GBLs; assay type: cell-based, Streptomyces coelicolor; settings: for antibiotic production (dark spot): S. coelicolor SMMS plates spotted with 1-100 μg racemic mixture of I-VII and VB-D at inoculation, observed after 42 hours; for dose dependence of antibiotic production (diameter of dark spot): amount of GBL mixture I-VII and VB-D 1-100 μg; for production of pigmented antibiotics (actinorhodin): S. coelicolor on SMMS plates, 2 μL spot with 16.5-165 μg racemic GBLs X and XI at inoculation, versus control plates without GBL
Method: The formulas I-VII in FIG. 10 illustrate the structures of the enantiomers in the mixture of GBLs tested for ability to elicit antibiotic production, the results of which are shown in the plates in FIG. 9. […] The mixture of GBLs was added to a pure culture of non-cognate microorganism S. coelicolor. Streptomycete strains were cultured in complex medium R5 or in minimal medium MMS. See Kieser, T. et al., Practical Streptomyces Genetics, John Innes Institute, 2000.
Spore stock of S. coelicolor was used to inoculate SMMS agar (solid SMM medium) and the spore suspension on the surfaces of the plates was allowed to dry. The GBL amounts were added at the time of inoculation.
The two plates in the top of the photograph of FIG. 9 are controls cultures of S. coelicolor. The control plate on the left is a negative control in which no GBL nor vehicle was added. The control plate on the right was contacted with the vehicle only, which was a mixture of methanol and water.
A racemic mixture of GBLs containing the non-naturally occurring compounds 1-VII and virginiae butenolide-D (VB-D) was synthesized, and an amount of about 500 μg was dissolved in 100 μL of vehicle to yield a 5 mg/ml concentration solution. The plates of the second row from left to right were spotted with 20 μL (100 μg), 10 μL (50 μg), 5 μL (25 μg), and […] of the 10 mg/ml concentration solution, respectively. […] The fifth plate of the third row was spotted with 2 μL (1 μg) of a 1:10 dilution of the 10 mg/ml concentration solution.
FIG. 12 is a photograph of SMMS (supplemented minimal media solid) plates inoculated with a spore stock of S. coelicolor streaked to cover the surface of the medium in the plate. At the time of inoculation, 2 μL of a racemic solution containing each amount of a dilution of the racemic GBLs having formulas X and XI were deposited in the center of a plate. Plate 1a was spotted with 2 μL of a solution containing 16.5 μg of GBLs X and XI. Plates 2a and 2b were spotted with 2 μL of a solution containing 33 μg of GBLs X and XI. Plate 3a was spotted with a solution containing 49.5 μg of GBLs X and XI. Plates 4a and 4b were spotted with a solution containing 66 μg of GBLs X and XI. Plates 5a, 6a, 7a, were spotted with solutions containing 99 μg, 132 μg, and 165 μg of GBLs X and XI, respectively. Racemic mixture GBLs were present in equal molar amounts. […] No pigment production was observed on the control plates shown in FIG. 7 not contacted with GBLs.

S. coelicolor [2] = assay: Large scale S. coelicolor fermentation with GBL, extract fractionation and LC-MS identification of induced secondary metabolites; assay type: cell-based, Streptomyces coelicolor; settings: S. coelicolor 300 mL cultures in SMM, 100 μM GBL; for Desferrioxamine B production / Desferrioxamine E production / streptorubin B production / undecylprodigiosin production: 5 days; for Desferrioxamine B production: fraction 28, peak at 1.81, versus untreated control; for Desferrioxamine E production: fraction 28, peak at 2.09, versus untreated control; for streptorubin B production: fraction 41, peak at 3.6, versus untreated control; for undecylprodigiosin production: fraction 41, peak at 3.8, versus untreated control
Method: Yields of both known and unknown bioactive compounds regulated by the presence of signaling hormones are improved by contacting producing cells with an appropriate GBL. Secondary metabolites were isolated from cultures of cells. Triplicate 300 mL cultures of S. coelicolor in SMM, was treated with the synthetic racemic mixture of VB-D and seven enantiomers of the non-cognate GBL shown in FIG. 10, at a total concentration of 100 μM, and an identical culture was grown without GBL. Cells were grown for five days at 29 C shaking at 220 rpm. Triplicates were pooled with GBL-treated and control cultures pooled separately.
A slurry of absorbent resins HP-20, XAD-16, XAD-7 and XAD-4 was added (2-4% weight/volume) and shaking was continued overnight. The resin and cell mass were removed by filtration and were washed three times with 200 mL deionized water. Resin and cell mass were extracted three times with 100-300 mL methanol to elute secondary metabolites from the resin. This extract was concentrated by rotary evaporation to remove extraction solvent.
The crude extract was dissolved in 1-3 mL of dimethylsulfoxide (DMSO) and was injected into a reveleris C18 reverse phase column on a Gilson High-Pressure Liquid Chromatography system. A flow rate of 15 ml/min was run for 40 minutes using mobile phases of methanol with 0.1% formic acid, and water with 0.1% formic acid. Forty-eight fractions were collected from a twenty minutes gradient of solvent from 15% methanol to 95% methanol, and were analyzed for antibacterial content on soft agar lawns of each of a Gram negative indicator strain, Escherichia coli, and a Gram positive indicator strain, Bacillus subtilis.
Further, 10 μL fraction volumes of each fraction were injected into a Waters Xevo G2-S Q-TOF LCMS system for further analytical separation and mass identification.
Fraction 28 of each of the GBL and the control extracts were each analyzed by LC-MS-TOF.
Fraction 41 of each of the GBL and the control extracts were each analyzed by LC-MS-TOF. […] Fraction 41 was subjected to UV chromatogram of diode array HPLC detector analysis. Again at prominent peak at 3.83 was observed. This material was determined to be undecylprodigiosin by mass chromatogram shown in FIG. 25, which has an observed mass of 393.27 and a calculated mass of 394.25.

S. glaucescens = assay: Principal component analysis of secondary metabolites of S. glaucescens small scale fermentations with GBLs; assay type: cell-based; settings: for induction of secondary metabolite production: S. glaucescens fermented in SMM medium, LC-MS data, versus untreated control (FIG. 17)
Method: S. glaucescens cells were grown in 3 mL cultures under 96 different conditions of medium, GBL choice, and GBL concentration. Each GBL solution was added to a tube in each of the following concentrations: 0.2 μM, 0.8 μM, 4 μM, 20 μM, and 100 μM. Media were a minimal medium SMM or a yeast enriched complex medium R5 (also called R2YE). The GBL indicated in FIG. 17 as PR001 and PR002 are shown in FIG. 16, and have the chemical formulae, respectively: 3-(1-hydroxyethyl)-4-(hydroxymethyl)dihydrofuran-2(3H)-one; and, 3-(1-hydroxyheptyl)-4-(hydroxymethyl)dihydrofuran-2(3H)-one.
Fermentations were incubated in 24-well blocks (CR 424, Enzyscreen B.V., Netherlands) with lids (1221a), and were shaken at 200 rpm for 5 days at 28° C. in an Infors HT incubator (Infors AG, Switzerland). For analysis, a C18 SPE-IT tip (57234-U from Sigma-Aldrich) was added to each fermentation which were further shaken at 400 rpm for one hour. Tips were removed and rinsed in deionized water, and were analyzed directly or stored for analysis. Analysis was collected at ionsense, Inc. (Saugus, Mass.) vaporized with a DART source at 400 C and 1 mm/s, and mass spectral data collected in a Thermo LTQ. Analysis used Progenesis QI from Nonlinear Dynamics (Waters).
Principal component analysis data of secondary metabolites induced by the GBLs in comparison to control absent GBL are shown in FIG. 17. […] Accordingly, 100 μM GBL was used in large scale fermentions.

[3] = listed as synthetic non-cognate GBL

CCCCCCC(O)C1C(=O)OCC1CO (single isomer, unassigned) [3-(1-hydroxyheptyl)-4-(hydroxymethyl)dihydrofuran-2(3H)-one]
antibiotic production (dark spot) (S. coelicolor [1]; listed as VB-D and seven enantiomer GBLs thereof having the formulas I-VII): production of the blue antibiotic, actinorhodin, and red prodiginies | antibiotic production (dark spot) (S. coelicolor [1]; listed as compounds 1-VII and virginiae butenolide-D (VB-D)): produced antibiotic | antibiotic production (dark spot) (S. coelicolor [1]; listed as mixture of GBLs): production of an antibacterial activity was elicited | antibiotic production (S. coelicolor [1]; S. coelicolor SMMS plates with racemic mixture of I-VII and VB-D, after 24 hours): No antibiotic production was observed | dose dependence of antibiotic production (diameter of dark spot) (S. coelicolor [1]; S. coelicolor plates, listed as VB-D and seven enantiomer GBLs thereof having the formulas I-VII): monotonic dose-dependent response | dose dependence of antibiotic production (diameter of dark spot) (S. coelicolor [1]; S. coelicolor plates, listed as compounds 1-VII and virginiae butenolide-D (VB-D)): dose-dependent monotonically | Desferrioxamine B production (S. coelicolor [2]): induced | Desferrioxamine B production (S. coelicolor [2]; [3]): substantially enhanced or even induced | Desferrioxamine E production (S. coelicolor [2]): induced | Desferrioxamine E production (S. coelicolor [2]; [3]): substantially enhanced or even induced | streptorubin B production (S. coelicolor [2]): induced | streptorubin B production (S. coelicolor [2]; [3]): substantially enhanced or even induced | undecylprodigiosin production (S. coelicolor [2]): induced | undecylprodigiosin production (S. coelicolor [2]; [3]): substantially enhanced or even induced | production of unknown compound (peak at 1.84) (S. coelicolor [2]; fraction 28, versus untreated control): induced | induction of secondary metabolite production (S. glaucescens): induction of secondary metabolite production

CC(O)C1C(=O)OCC1CO (stereo not drawn) [3-(1-hydroxyethyl)-4-(hydroxymethyl)dihydrofuran-2(3H)-one]
distinction from control secondary metabolites produced absent GBL (principal component analysis) (S. glaucescens; S. glaucescens 3 mL cultures, 5 days, 0.2-100 μM GBL): greatest distinction from control | induction of secondary metabolite production (S. glaucescens): induction of secondary metabolite production | dose dependence of induction of secondary metabolites (S. glaucescens; S. glaucescens, GBL 0.2, 0.8, 4, 20, 100 μM): in a dose-dependent manner | concentration of maximal distinction from control (S. glaucescens; S. glaucescens, principal component analysis): 100 µM

CCCCCCC(=O)C1C(=O)OCC1CO (stereo not drawn) [GBLs X and XI]
time of induction of production of the pigmented antibiotics (S. coelicolor [1]; S. coelicolor SMMS plates contacted with racemic GBLs X and XI): early induction | production of pigmented antibiotics (actinorhodin) (S. coelicolor [1]): pigmented antibiotic is produced only in response to treatment; also recorded: increased production of pigmented antibiotics | production of pigmented antibiotics (actinorhodin) (S. coelicolor [1]; listed as X and XI): production of the purple antibiotic, actinorhodin | dose dependence of antibiotic production (S. coelicolor [1]; S. coelicolor plates, increasing amount of GBLs X and XI (FIG. 3)): dose-dependent increase in antibiotic production
